# Where two headings read alike, the source gives them in different places. Strand notation (5' to 3'): a small letter for the sugar, then the base; units joined by * are phosphorothioate-linked, units joined directly phosphodiester-linked; [ ] holds rarer units or linkages, { } end groups; capitals alone tell only the bases. m = 2'-O-methyl
# Legend:
# full-length hTR = experiment: Fluorescence polarization binding to full-length hTR; parameters: species or system human; details: for Kd: full-length hTR construct, SEQ ID NO: 1 variants, read-out: Kp from FP; for affinity for full-length hTR (in words): FP
# Description: To assess and quantify the ability of the RIPtide hits from microarray screening to bind the target RNA in solution, a panel of RIPtides representing variations on the consensus sequences of top hits within each cluster was selected. These RIPtides were synthesized with a 3-carboxyfluorescein (FAM) label attached to the 3′-end, the same as had been attached to the surface of the microarray. Fluorescence polarization (FP) was then used to measure quantitatively the equilibrium dissociation constant (Kd) values of the FAM-labeled RIPtides, using the same folded target RNAs and buffer system as had been employed in the microarray screen.
# It is possible, without wishing to be limited by a theory, that RIPtide binding sites present or available in truncated forms of hTR may not be present or available in full-length hTR. Five RIPtides were therefore selected that had been validated for binding PKWT-1 in solution, and their binding affinity to full-length hTR was measured using FP. […] Were the J2b/3 loop involved in tertiary interactions in hTR, RIPtide binding might have been lost, and therefore it was surmised that the loop remains relatively unengaged in such interactions when present in naked hTR.
# The remainder of the RIPtide hits from primary microarray screens of PK123 and PK159 in solution were not validated, but instead validation using full-length hTR was analyzed. Representative examples from each of the clusters were selected (FIG. 4D) and the binding affinity of these RIPtides for full-length hTR was quantified (FIG. 6A). In this way, RIPtides from clusters III, IV and V that bind full-length hTR were identified. Taken together, the collection of hTR-validated RIPtides maps out a series of sites on the template/pseudoknot that are especially conducive to targeting by a 2′-O-methyl polyribonucleotide; with each site corresponding to a cluster of sequence-complementary RIPtides (FIG. 6B, shaded according to sequence in FIG. 6A). Specifically, these hyper-targetable regions are the J2b/3 loop and P3 stem (Cluster II), the J2a/2b bulge through part of the P2a stem (Cluster III), the J2a/3 loop (Cluster IV), and the Template region (Cluster V).
# FAM (6-carboxyfluorescein)-labeled oligonucleotides were synthesized on a 3′-(6-Fluorescein) CPG support (Glen Research) using a MerMade 12 (BioAutomation) DNA synthesizer, purified with Poly Pak-II (Glen Research) cartridges, and compositionally verified by MALDI-TOF MS. Unlabeled full length hTR was prepared by in vitro transcription in the presence of T7 RNA polymerase under the conditions described earlier for RIPtide screening, but without aminoallyl-UTP addition. After DNase I treatment and ethanol precipitation, hTR was purified using the RNeasy Midi kit (Qiagen). Unlabeled PKWT and PKWT-1 were purchased from Dharmacon, and were PAGE-purified and desalted. FAM-labeled RIPtides (5 nM) were titrated with increasing concentrations of folded RNA (300 pM-3 μM, typically). Solutions containing RIPtide and RNA were incubated at 37° C. for 2 h, after which fluorescence polarization was recorded at room temperature using a SpectraMax M5 (Molecular Devices) plate reader. Polarization (expressed in millipolarization units) was monitored at […] (cutoff 515 nm). […] Dissociation constants were determined using Kaleidagraph 3.5 (Synergy Software). […]
# [1] = system: telomerase ribonucleoprotein complex; experiment: TRAP assay in cell extracts (HeLa, DU145, HEK293); format: biochemical, human; details: for IC50 in TRAP (in words): cell extracts (HeLa, DU145, HEK293)
# Description: Having discovered a panel of RIPtides that bind four different regions on the naked RNA component of telomerase, it was next determined whether these molecules were capable of inhibiting the activity of the telomerase ribonucleoprotein complex in an in vitro setting. The Telomeric Repeat Amplification Protocol (TRAP) assay (Kim, N. W. et al., Science 266, 2011-2015 (1994)) was therefore employed. The TRAP assay is a PCR-based protocol that has found widespread use in determining telomerase activity in human cell extracts and also in evaluating the in vitro potency of telomerase inhibitors. Using a version of the TRAP assay (Cy5-TRAP) that utilizes fluorescence detection (Herbert, B.-S. et al., Nat. Protocols 1, 1583-1590 (2006)). IC50 values for several RIPtides were determined using cell extracts from two human tumor cell lines (HeLa and DU145) and an immortalized embryonic cell line (HEK293). Initially, a small library of RIPtides representing several clusters identified in the microarray screen was screened and validated by FP experiments on hTR, using telomerase activity present in HeLa cell extracts. The majority of these were 8-mers, but some 7-mers and 6-mers were also tested; all were fully complementary to the target hTR sequence with Kd's for hTR below 300 nM. Several phosphorothioate variations of the initial library were additionally tested, incorporating phosphorothioate linkages either at the two terminal positions of the RIPtide or at every position.
# Inhibition of telomerase activity in vitro was determined using TRAP, a PCR-based assay for telomerase activity in cell extracts (B.-S. Herbert, Nat. Protocols, 1, 1583-1590 (2006)). Unlabeled oligonucleotide sequences found to bind by FP were pre-incubated with cell extracts (HeLa, DU 145, and 293), and activity was measured by TRAP.
# RIPtides were synthesized, purified with PolyPak-II C18 reverse phase cartridges, and constitutionally verified by MALDI-TOF MS. Telomerase-positive cells were either purchased from ATCC (DU145 and HEK293) or provided in the Chemicon TRAP kit (HeLa). Cell extracts were prepared from cell pellets by detergent lysis with 1×CHAPS lysis buffer (Chemicon). RIPtides were incubated with cell extract for 1 h at 37° C. prior to the TRAP assays. Assays were performed following a protocol that uses fluorescence as a quantitation system, as previously described by Herbert et al. (Nat. Protocols 1, 1583-1590 (2006)). Briefly, extension of a fluorescent artificial substrate by telomerase was carried out for 30 minutes at 30° C., followed by amplification with 30 PCR cycles ([…] 30 s, 59° C. 30 s, 72° C. 1 min). Telomerase extension products were separated on 10% native PAGE gels, and bands were visualized by fluorescence imaging and quantified using ImageQuant™ (GE Healthcare). Concentrations of RIPtides ranged from 0.6 nM to 60 μM, and for the initial screening, experiments were performed in duplicate using HeLa cell extracts. For active RIPtides, experiments were repeated using DU145 (prostate cancer) and HEK293 cell extracts. Several controls were included in the design of the experiments: a positive control (untreated cell lysate), negative controls (buffer only, heat inactivated and RNase treated cell extracts), and PCR amplification control (60 μM of RIPtide added after telomerase elongation and before PCR step). For cell-based TRAP assays, DU145 cells were transfected with 0.2% Lipofectamine™ 2000 (Invitrogen) and 165 nM RIPtide for a period of 24 h. Cells were harvested, counted, lysed with 1×CHAPS lysis buffer and normalized by total protein concentration as determined by the Bradford assay. Assays were performed in triplicate as described above.
# The inhibitory potential of the RIPtides was initially assessed in HeLa cell extracts, in duplicate experiments, using a 600 pM-60 μM concentration range. Experiments with selected RIPtides were repeated for a concentration range of 0.6 pM-60 μM. […]
# [2] = system: telomerase activity in DU145 cells; experiment: Cell-based TRAP assay in transfected DU145 cells; parameters: species or system human; details: 165 nM RIPtide, 24 h, Lipofectamine 2000, then TRAP
# Experimental: Having established that the modified RIPtides retain activity in vitro, several of these were tested in cell-based assays. DU145 prostate cancer cells were treated with 165 nM RIPtide for 24 h. The cells were subsequently lysed and telomerase activity was assessed by the TRAP assay (FIG. 8D). As a positive control, a previously reported 13-mer 2′-O-methyl oligonucleotide targeting the template region of hTR was employed (Pitts, A. E., Corey, D. R., Proc. Natl. Acad. Sci. USA 95, 11549-111554 (1998)). Lipofectamine™ was used to ensure optimal delivery, and it remains to be established whether cationic lipid delivery is necessary for 10-mers. In particular, there is evidence that relatively short oligonucleotides containing phosphorothioate linkages targeting telomerase show optimal cellular uptake properties (Chen, Z., et al., J. Med. Chem. 45, 5423-5425 (2002)).
# RIPtides were synthesized, purified with PolyPak-II C18 reverse phase cartridges, and constitutionally verified by MALDI-TOF MS. Telomerase-positive cells were either purchased from ATCC (DU145 and HEK293) or provided in the Chemicon TRAP kit (HeLa). Cell extracts were prepared from cell pellets by detergent lysis with 1×CHAPS lysis buffer (Chemicon). RIPtides were incubated with cell extract for 1 h at 37° C. prior to the TRAP assays. Assays were performed following a protocol that uses fluorescence as a quantitation system, as previously described by Herbert et al. (Nat. Protocols 1, 1583-1590 (2006)). Briefly, extension of a fluorescent artificial substrate by telomerase was carried out for 30 minutes at 30° C., followed by amplification with 30 PCR cycles ([…] 30 s, 59° C. 30 s, 72° C. 1 min). Telomerase extension products were separated on 10% native PAGE gels, and bands were visualized by fluorescence imaging and quantified using ImageQuant™ (GE Healthcare). […] Cells were harvested, counted, lysed with 1×CHAPS lysis buffer and normalized by total protein concentration as determined by the Bradford assay. […]
# mutated full length hTR = experiment: Fluorescence polarization compensatory mutation study with mutated full-length hTR; format: binding, human; details: mutant RIPtide and mutant hTR
# Description: Without wishing to be limited or constrained by theory, the RIPtide binding sites on hTR had been inferred assuming Watson-Crick complementarity between the RIPtide and target. To verify experimentally that the RIPtides were actually recognizing the predicted regions on hTR, tandem point mutations were introduced into the central portion of the RIPtides and compensatory sequence changes into hTR. The binding behavior of the “wild type” and “mutant” RIPtides to wild-type and compensatory mutant hTR targets was analyzed by FP (FIG. 7). Four different hTR transcripts were generated in which two consecutive nucleotides at the central position of each cluster, the expected target site (FIG. 6A, bases indicated in bold), were mutated to their Watson-Crick complementary bases (G→C, C→G and U→A). […] Similarly, binding was abolished or reduced when mutated RIPtides were incubated with wild-type hTR (FIG. 7C). […] Perhaps this lack of restoration in certain cases reflects a local change in the availability or in the folding energy of the single-stranded elements as a result of the mutation. Taken together, this mutational specificity supports the notion, without wishing to be bound by theory, that the RIPtides indeed target telomerase at the corresponding sequence-complementary sites.
# For mapping of hTR-RIPtide binding sites, site-directed mutagenesis on the pRc/CMV plasmid (Collins lab, UC Berkeley) was performed using a QuickChange-XL mutagenesis kit (Stratagene) and confirmed by sequencing. Full-length hTR transcripts incorporating two consecutive base mutations (to their Watson-Crick complementary bases) were generated for fluorescence polarization studies.
# [3] = cell extracts (HeLa, DU 145, and 293), SEQ ID NO: 1 variants, read-out: IC50 from TRAP
substance,measurement,setting,value
G*CCUCCAG (mG*mCmCmUmCmCmAmG),Kd,full-length hTR,8.8 ± 2.5 nM
same,IC50,[1]; [3],~9000 nM
"5′-GGUGGAAGGC-3′ (2'-O-methyl sugars, as printed in the source, key not given here) [IV-3]",telomerase inhibition in cultured cells,[2],no significant telomerase inhibition
same,IC50 in TRAP (in words),[1],low nanomolar range
"GGUGGAAGGC (as printed in the source, key not given here) [IV-5]",telomerase inhibition in cultured cells,[2],marked inhibition
"CAGCGAGA (all 2'-O-methyl, backbone not given here) [II-1]",restoration of binding with compensatory mutations in both RIPtide and hTR,mutated full length hTR,Restoration was not observed
"GGUGGAAGGC (as printed in the source, key not given here) [IV-4]",IC50 in TRAP (in words),[1],low nanomolar range
G*CCUCCA*G (mG*mCmCmUmCmCmA*mG; further chemistry not given here),Kd,full-length hTR,37.3 ± 15.2 nM
GCCUCCA*G (mGmCmCmUmCmCmA*mG),Kd,full-length hTR,8.9 ± 5.6 nM
same,IC50,[1]; [3],~16000 nM
5′-GCCUCCAG-3′ (chemistry not given here) [SEQ ID NO: 1],affinity for full-length hTR (in words),full-length hTR,confirmed
same,telomerase inhibition in TRAP assays (in words),[1]; cell extracts,showing inhibition of activity
same,IC50 in TRAP (in words),[1],micromolar range
"GUCAGCGA (all 2'-O-methyl, backbone not given here) [II-2]",restoration of binding with compensatory mutations in both RIPtide and hTR,mutated full length hTR,restoration was observed
same,affinity for full-length hTR (in words),full-length hTR,improvement in affinity
G*C*C*U*C*C*A*G (mG*mC*mC*mU*mC*mC*mA*mG) [G*C*C*U*C*C*A*G LNA],IC50,[1]; [3],~6000 nM
"GGUGGAAGGC (as printed in the source, key not given here)",IC50,"[1]; cell extracts, in vitro, read-out: IC50, telomerase inhibition in TRAP",~1 nM
"AGUUAGG (all 2'-O-methyl, backbone not given here) [V-3]",restoration of binding with compensatory mutations in both RIPtide and hTR,mutated full length hTR,restoration was observed
"GGUGCCAGGC (all 2'-O-methyl, backbone not given here; further chemistry not fully specified) [IV-3 mismatch, reference compound]",telomerase inhibition in cultured cells,[2],abolished inhibition
